Usually IC50 stands for the concentration that gives 50% inhibition. For orientation: EC50 means the concentration at which the effect is half-maximal. A high value points to a need for much substance.

The structures appear in SMILES notation. Read-outs that look alike come from different tables or passages of the source. Starred links: 1 amine or outer side, 2 acyl side, 3 side chain; linkers in the order of their positions; H or OH if unused. Non-standard residues stand in square brackets, D forms with d. Residues, ends and D or L forms follow the SMILES beside them. X6 = N=C(N)NCCC[C@H](N[*:1])C(=O)c1nc2ccc(C(=O)[*:2])cc2s1

Data on 18 compounds can be found in patent US12590123B2, “Compounds and methods for treating cancer, viral infections, and allergic conditions” (Washington University, priority 2019, dated 2026).

The target of one assay is T1, KLK5 (Homo sapiens, UniProt Q9Y337).
T1 construct: purchased R&D Systems 1108-SE-010
T1 sequence (Q9Y337 23-293): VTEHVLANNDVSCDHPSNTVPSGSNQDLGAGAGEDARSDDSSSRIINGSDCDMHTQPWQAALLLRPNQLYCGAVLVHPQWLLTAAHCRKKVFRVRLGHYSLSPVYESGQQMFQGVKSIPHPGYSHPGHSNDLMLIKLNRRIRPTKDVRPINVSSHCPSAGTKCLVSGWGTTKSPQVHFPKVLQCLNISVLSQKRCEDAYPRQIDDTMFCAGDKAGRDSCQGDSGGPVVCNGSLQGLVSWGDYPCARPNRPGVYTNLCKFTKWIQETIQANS
As to the kind of experiment: Fluorescent kinetic enzyme inhibitor assay of KLK5 (Boc-VPR-AMC). The format is biochemical. The following applies: Table 4; 7.5 nM KLK5, 100 μM substrate. The procedure:
Fluorescent Kinetic Enzyme Inhibitor Assay of KLK5: Inhibitors (11-pt serial dilutions, 0-20 μM final concentration in reaction) were serially diluted in DMSO (2% DMSO final concentration) and then mixed with KLK5 (#1108-SE-010, R&D Systems, Minneapolis, Minnesota) in black 384 well plates (Corning #3575. Corning, NY). The final assay concentration for KLK5 is 7.5 nM in TNC buffer (25 mM Tris, 150 mM NaCl, 5 mM CaCl2), 0.01% Triton X-100, pH 8). After thirty minutes incubation at room temperature, Boc-VPR-AMC substrate was added. The final substrate concentrations for assay is 100 μM. Changes in fluorescence (excitation at 380 nm and emission at 460 nm) were measured at room temperature over time in a Biotek Synergy 2 plate reader (Winnoski, VT). Using GraphPad Prism version 6.04 software program, (GraphPad Software, San Diego, CA, graphpad.com), a four parameter curve fit was used to determine the inhibitor IC50s from a plot of the mean reaction velocity versus the inhibitor concentration. The IC50 values represent the average of three or more separate experimental determinations.

Assay [1] concerns VSVpp (SARS-2-S) entry into TMPRSS2-positive Calu-3 cells.
The next assay concerns the target recombinant thrombin (Homo sapiens, UniProt P00734). As to the kind of experiment: Chromogenic kinetic enzyme assay of thrombin (S2238). The following applies: Table 2; chromogenic assay; read-out: Thrombin* (IC50 nM). The assay is classed as biochemical. The procedure:
(§1) Using GraphPad Prism (GraphPad Software, San Diego, CA), a four-parameter curve fit was used to determine the inhibitor IC50s from a plot of the mean reaction velocity versus the inhibitor concentration. The IC50 values represent the average of three or more separate experimental determinations. Apparent Ki values were calculated from the IC50 values using the Cheng and Prusoff equation (Ki=IC50/(1+[S]/Km).
(§2) Using GraphPad Prism version 6.04 software program, (GraphPad Software, San Diego, CA, graphpad.com), a four parameter curve fit was used to determine the inhibitor IC50s from a plot of the mean reaction velocity versus the inhibitor concentration.
(§3) Fluorescent inhibitor and chromogenic proteolytic assays were performed for compounds prepared in Example 11 in general accordance with the procedures described in Example 9.

For another assay, the target named is T2, activated hepsin (Homo sapiens, UniProt P05981).
T2 construct: purchased R&D Systems 4776-SE-010
As to the kind of experiment: Fluorescent kinetic enzyme assay of hepsin activity (Boc-QAR-AMC). The format is biochemical.

In a further assay the target is T3, matriptase (Homo sapiens, UniProt Q9Y5Y6).
T3 construct: purchased R&D Systems 3946-SE-010
T3 sequence (Q9Y5Y6 615-855 limits assumed): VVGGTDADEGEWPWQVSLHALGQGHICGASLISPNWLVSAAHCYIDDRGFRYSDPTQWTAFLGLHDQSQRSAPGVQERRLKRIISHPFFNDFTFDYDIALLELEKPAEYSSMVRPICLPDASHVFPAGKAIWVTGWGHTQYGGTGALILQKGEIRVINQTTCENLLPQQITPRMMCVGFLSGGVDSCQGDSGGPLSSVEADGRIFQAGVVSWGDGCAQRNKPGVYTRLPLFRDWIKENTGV
As to the kind of experiment: Fluorescent kinetic enzyme assay of matriptase activity (Boc-QAR-AMC). The assay is classed as biochemical. The following applies: Table 2; read-out: Matriptase (IC50 nM).

For another assay, the target named is Factor Xa (Homo sapiens, UniProt P00742). In words: Chromogenic kinetic enzyme assay of Factor Xa (S2222). The conditions noted are these: Table 2; chromogenic assay; read-out: Factor Xa* (IC50 nM). The assay is classed as biochemical. Here is the method:
as §1, §2, §3

Assay [2] deals with T4, recombinant HGFA serine protease domain (Homo sapiens, UniProt Q04756).
T4 construct: His6 tag (N); seven amino acid spacer plus TEV cleavage site (N); made in house; host or cells: High 5 insect cells (baculovirus; Sf9 for virus production)
T4 sequence (Q04756 373-655): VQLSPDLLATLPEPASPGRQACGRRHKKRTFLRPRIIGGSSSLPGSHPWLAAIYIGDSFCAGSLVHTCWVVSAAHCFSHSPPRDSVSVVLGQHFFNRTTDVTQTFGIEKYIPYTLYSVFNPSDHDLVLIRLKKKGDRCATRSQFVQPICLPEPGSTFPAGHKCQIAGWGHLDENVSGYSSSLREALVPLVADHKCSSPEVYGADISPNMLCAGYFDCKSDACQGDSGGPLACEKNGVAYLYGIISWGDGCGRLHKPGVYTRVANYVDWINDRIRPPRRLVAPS
As to the kind of experiment: Fluorescent kinetic enzyme assay of HGFA activity (Boc-QLR-AMC). The assay is classed as biochemical. The following applies: Table 2; read-out: HGFA (IC50 nM). A digest of the protocol:
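His-tagged HGFA protease domain from baculovirus-infected High 5 cells, 6.25 nM in pH 8 Tris/NaCl/5 mM CaCl2/0.01% Triton X-100 with 2% DMSO. IC50 from four-parameter velocity fit (≥3 runs); apparent Ki by Cheng–Prusoff.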

The mark [3] stands for this setting: Table 2, read-out: Hepsin (IC50 nM).

T2 sequence (P05981 163-417 limits assumed): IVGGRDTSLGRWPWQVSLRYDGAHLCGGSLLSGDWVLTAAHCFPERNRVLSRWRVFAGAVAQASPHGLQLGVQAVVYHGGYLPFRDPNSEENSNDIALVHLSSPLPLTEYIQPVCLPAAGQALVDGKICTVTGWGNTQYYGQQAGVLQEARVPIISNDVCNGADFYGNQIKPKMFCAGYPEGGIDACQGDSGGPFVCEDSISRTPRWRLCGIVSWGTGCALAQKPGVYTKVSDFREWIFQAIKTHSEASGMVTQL
T2 sequence (P05981 1-162 partner limits assumed): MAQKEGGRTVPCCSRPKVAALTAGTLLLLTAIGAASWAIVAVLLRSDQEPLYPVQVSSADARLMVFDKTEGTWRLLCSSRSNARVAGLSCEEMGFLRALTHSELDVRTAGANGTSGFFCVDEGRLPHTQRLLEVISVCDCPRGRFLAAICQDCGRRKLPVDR
Factor Xa, sequence (P00742 235-488 limits assumed): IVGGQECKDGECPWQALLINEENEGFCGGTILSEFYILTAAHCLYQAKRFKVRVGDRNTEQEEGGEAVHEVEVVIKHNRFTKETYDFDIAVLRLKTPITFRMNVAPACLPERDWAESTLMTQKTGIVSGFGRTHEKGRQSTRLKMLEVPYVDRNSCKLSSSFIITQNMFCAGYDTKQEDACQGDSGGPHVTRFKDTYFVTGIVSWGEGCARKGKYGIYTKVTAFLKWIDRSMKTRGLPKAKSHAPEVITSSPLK
Factor Xa, sequence (P00742 41-179 partner limits assumed): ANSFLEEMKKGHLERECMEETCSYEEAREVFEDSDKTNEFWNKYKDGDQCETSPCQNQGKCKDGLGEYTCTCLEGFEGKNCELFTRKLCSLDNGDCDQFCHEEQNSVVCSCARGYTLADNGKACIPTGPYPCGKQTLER
Experimental for activated hepsin: (§4) After thirty minutes of incubation at room temperature, Boc-QLR-AMC substrate was added (HGFA assay) or Boc-QAR-AMC substrate (matriptase, and hepsin assays). […] From a plot of the mean reaction velocity versus the inhibitor concentration, a non-linear four parameter curve fit was performed using GraphPad Prism (GraphPad Software, San Diego, CA) to determine inhibitor IC50s. The IC50 values were determined from the average of three or more separate experimental determinations. Apparent Ki values were calculated using the Cheng and Prusoff equation (Ki=IC50/(1+[S]/Km).
(§5) Inhibitors were pre-incubated with protease followed by the addition of the substrate. Inhibition of substrate proteolysis derived fluorescence was monitored kinetically over a period of one hour.
Experimental for matriptase: as §4, §5

`CC(=O)N[C@@H](Cc1c[nH]c2ccccc12)C(=O)N[C@@H](Cc1ccccc1)C(=O)N[C@@H](CCCNC(=N)N)C(=O)c1nc2ccccc2s1` [AcWFRkbt, Ac-WFR-kbt]: the IC50 at KLK5 is above 20000 nM.
For `CC(=O)N[C@@H](CC(C)C)C(=O)N[C@@H](CC(C)C)C(=O)N[C@H](C=O)CCCNC(=N)N` [Leupeptin, reference compound], the IC50 at KLK5 is above 20000 nM.
On to `CC(=O)N[C@H]1CC(=O)NCCCC[C@@H](C(=O)N[C@@H](CCCNC(=N)N)B(O)O)NC(=O)[C@H](CC(C)C)NC1=O` [MM2030], for which the IC50 at KLK5 was determined as 18100 nM.
Regarding `CC(=O)N[C@H](Cc1c[nH]c2ccccc12)C(=O)N[C@@H](Cc1ccccc1)C(=O)N[C@@H](CCCNC(=N)N)C(=O)c1nc2ccccc2s1` [PK-1-89, Ac-dWFR-kbt], the EC50 in assay [1] was 32 nM.
As for `CC(=O)N[C@H]1CC(=O)NCCCC[C@@H](C(=O)N[C@@H](CCCNC(=N)N)C(=O)c2nc3ccccc3s2)NC(=O)[C@H](CC(C)C)NC1=O` [VD2173, (3S,6S,14S)-6-acetamido-N—((S)-1-(benzo[d]thiazol-2-yl)-5-guanidino-1-oxopentan-2-yl)-3-isobutyl-2,5,8-trioxo-1,4,9-triazacyclotetradecane-14-carboxamide], the IC50 at recombinant thrombin stood at 699 nM; at activated hepsin (setting [3]), 8.4 nM; at activated hepsin (Table 6, read-out: Hepsin IC50) it was 10 nM. In addition, the EC50 in assay [1] was 104 nM.
Turning to `CC(=O)N[C@H]1CC(=O)NCCCC[C@@H](C(=O)N[C@@H](CCCNC(=N)N)C(=O)c2nc3ccccc3s2)NC(=O)[C@H](CCC(N)=O)NC1=O` [VD3152, (3S,6S,14S)-6-acetamido-3-(3-amino-3-oxopropyl)-N—((S)-1-(benzo[d]thiazol-2-yl)-5-guanidino-1-oxopentan-2-yl)-2,5,8-trioxo-1,4,9-triazacyclotetradecane-14-carboxamide], in assay [1], the “Calu-3 EC50 (nM)” value is “almost equivalent activity” and a half-maximal effect (EC50) was put at 138 nM.
For `CSCC[C@@H]1NC(=O)[C@@H](NC(C)=O)CC(=O)NCCCC[C@@H](C(=O)N[C@@H](CCCNC(=N)N)C(=O)c2nc3ccccc3s2)NC1=O` [VD3173, (3S,6S,14S)-6-acetamido-N—((S)-1-(benzo[d]thiazol-2-yl)-5-guanidino-1-oxopentan-2-yl)-3-(2-(methylthio)ethyl)-2,5,8-trioxo-1,4,9-triazacyclotetradecane-14-carboxamide], at recombinant thrombin, the IC50 is above 20000 nM. Besides, in assay [1], the “Calu-3 EC50 (nM)” value is reported as “almost equivalent activity” and the EC50 amounted to 119 nM.
In the case of `CC(=O)N[C@H]1C/C=C\COc2ccc(cc2)C[C@@H](C(=O)N[C@@H](CCCNC(=N)N)C(=O)c2nc3ccccc3s2)NC(=O)[C@H](CC(C)C)NC1=O` [VD4051, (7S,10S,13S,E)-7-acetamido-N—((S)-1-(benzo[d]thiazol-2-yl)-5-guanidino-1-oxopentan-2-yl)-10-isobutyl-8,11-dioxo-2-oxa-9,12-diaza-1(1,4)-benzenacyclotetradecaphan-4-ene-13-carboxamide], the figures for the IC50 on matriptase, on activated hepsin (setting [3]) and on Factor Xa were 80.2 nM, 102 nM and 8810 nM, respectively. In assay [1], the EC50 worked out at 565 nM.
For the compound `CC(=O)N[C@H]1Cc2ccc(cc2)OCCCC[C@@H](C(=O)N[C@@H](CCCNC(=N)N)C(=O)c2nc3ccccc3s2)NC(=O)[C@H](CC(C)C)NC1=O` [VD4072, (7S,10S,13S)-13-acetamido-N—((S)-1-(benzo[d]thiazol-2-yl)-5-guanidino-1-oxopentan-2-yl)-10-isobutyl-9,12-dioxo-2-oxa-8,11-diaza-1(1,4)-benzenacyclotetradecaphane-7-carboxamide], the IC50 on matriptase is 7.76 nM; at KLK5 it was 5230 nM; on activated hepsin (setting [3]) it was 0.175 nM; in assay [2], 7.99 nM.
With `CC(=O)N[C@H]1Cc2cn(nn2)CCCC[C@H](C(=O)N[C@@H](CCCNC(=N)N)C(=O)c2nc3ccccc3s2)NC(=O)[C@H](CC(C)C)NC1=O` [VD4090, (3S,6S,9R,Z)-3-acetamido-N—((S)-1-(benzo[d]thiazol-2-yl)-5-guanidino-1-oxopentan-2-yl)-6-isobutyl-4,7-dioxo-11H-5,8-diaza-1(4,1)-triazolacyclotridecaphane-9-carboxamide], the IC50 on matriptase was determined as 39.1 nM; on KLK5, 9390 nM; at activated hepsin (setting [3]) it was 14.1 nM.
Regarding `CC(=O)N[C@H]1Cc2ccc(cc2)OCCCC[C@@H](C(=O)N[C@@H](CCCNC(=N)N)C(=O)c2nc3ccccc3s2)NC(=O)[C@H](Cc2c[nH]c3ccccc23)NC1=O` [VD4158], the IC50 worked out at 56.8 nM at matriptase, 3560 nM at KLK5 and 85.2 nM in assay [2].
`CC(=O)N[C@H]1CC(=O)N(C)CCCC[C@@H](C(=O)N[C@@H](CCCNC(=N)N)C(=O)c2nc3ccccc3s2)NC(=O)[C@H](CC(C)C)NC1=O` [VD4192B]: the IC50 at matriptase is 1.1 nM; on recombinant thrombin it was 17100 nM; at activated hepsin (setting [3]) it was 14.9 nM; in assay [2], 12300 nM; at Factor Xa, 678 nM.
On to `CC(=O)N[C@H]1CC(=O)N(C)CCCC[C@@H](C(=O)N[C@@H](CCCNC(=N)N)C(=O)c2nc3ccccc3s2)NC(=O)[C@H](CC(C)C)NC1=O` [VD4192C1], for which the IC50 is 111 nM at matriptase; above 20000 nM at recombinant thrombin; 0.97 nM on activated hepsin (setting [3]); 7730 nM in assay [2]; above 20000 nM on Factor Xa.
Take `CC(=O)N[C@H]1CC(=O)N(C)CCCC[C@@H](C(=O)N[C@@H](CCCNC(=N)N)C(=O)c2nc3ccccc3s2)NC(=O)[C@H](CC(C)C)NC1=O` [VD4192C2]: the IC50 was 23.5 nM at matriptase; above 20000 nM on recombinant thrombin; 1.75 nM on activated hepsin (setting [3]); 8560 nM in assay [2]; 18500 nM at Factor Xa.
`CC(=O)N[C@@H](CC(C)C)C(=O)N[C@@H](CC(C)C)C(=O)N[C@@H](CCCNC(=N)N)C(=O)c1nccs1` [ZFH6201, Ac-LLR-kt] came in with a half-maximal effective concentration (EC50) in assay [1] of 349 nM.
With `CC(=O)N[C@@H](CCCCN)C(=O)N[C@@H](CCC(N)=O)C(=O)N[C@@H](CC(C)C)C(=O)N[C@@H](CCCNC(=N)N)C(=O)c1nc2ccccc2s1` [ZFH7006, Ac-KQLR-kbt], the EC50 in assay [1] is 78 nM.
Regarding `CC(=O)N[C@@H](Cc1c[nH]c2ccccc12)C(=O)N[C@@H](CC(C)C)C(=O)N[C@@H](Cc1ccccc1)C(=O)N[C@@H](CCCNC(=N)N)C(=O)c1nc2ccccc2s1` [ZFH7064, Ac-WLFR-kbt], in assay [1], the “Calu-3 EC50 (nM)” value is “excellent potency” and the EC50 was determined as 150 nM.
As to `CC(=O)N[C@@H](CO)C(=O)N[C@@H](CCCCN)C(=O)N[C@@H](CC(C)C)C(=O)N[C@@H](CCCNC(=N)N)C(=O)c1nc2ccc(C(=O)N[C@H](C(N)=O)C(C)C)cc2s1` [ZFH7116, Ac-SKLR kbt V-amide] (Ac-SKL[X6]V-NH2), at activated hepsin (Table 6, read-out: Hepsin IC50), the IC50 amounted to 0.5 nM. Moreover, in assay [1], the EC50 is 307 nM.
